Here are results for one molecule from article PMC5097156, “Potent and selective chemical probe of hypoxic signalling downstream of HIF-α hydroxylation via VHL inhibition” (Nature Communications, 2016).

Common to all, as to assay: biochemical
Holding throughout (design): Dundee MRC-PPU Express kinase screen, remaining kinase activity
Details in all cases: read-out: Mean % of remaining kinase activity (±sd)

Assay [1] deals with T1, S6K1 (Homo sapiens, UniProt P23443).
T1 construct: gene RPS6KB1

Assay [2] concerns the target T2, MST2 (Homo sapiens, UniProt Q13188).
T2 construct: gene STK3

Assay [3] deals with SYK (Homo sapiens, UniProt P43405).
Assay [4] concerns the target RIPK2 (Homo sapiens, UniProt O43353).
Assay [5] addresses T3, HER4 (Homo sapiens, UniProt Q15303).
T3 construct: gene ERBB4

For assay [6], the target named is T4, JNK1 (Homo sapiens, UniProt P45983).
T4 construct: gene MAPK8

Assay [7] has as its target T5, PKBa (Homo sapiens, UniProt P31749).
T5 construct: gene AKT1

Assay [8] addresses Lck (Homo sapiens, UniProt P06239).
The target of assay [9] is T6, TrkA (Homo sapiens, UniProt P04629).
T6 construct: gene NTRK1

Assay [10] addresses GSK3b (Homo sapiens, UniProt P49841).
Assay [11] concerns the target T7, PRK2 (Homo sapiens, UniProt Q16513).
T7 construct: gene PKN2

Assay [12] deals with T8, PDK1 (Homo sapiens, UniProt O15530).
T8 construct: gene PDPK1

Assay [13] concerns the target T9, TAK1 (Homo sapiens, UniProt O43318).
T9 construct: gene MAP3K7

Assay [14] has as its target JAK3 (Homo sapiens, UniProt P52333).
The target in assay [15] is T10, EF2K (Homo sapiens, UniProt O00418).
T10 construct: gene EEF2K

The structures appear in SMILES notation.

T2 sequence (Q13188 whole entry): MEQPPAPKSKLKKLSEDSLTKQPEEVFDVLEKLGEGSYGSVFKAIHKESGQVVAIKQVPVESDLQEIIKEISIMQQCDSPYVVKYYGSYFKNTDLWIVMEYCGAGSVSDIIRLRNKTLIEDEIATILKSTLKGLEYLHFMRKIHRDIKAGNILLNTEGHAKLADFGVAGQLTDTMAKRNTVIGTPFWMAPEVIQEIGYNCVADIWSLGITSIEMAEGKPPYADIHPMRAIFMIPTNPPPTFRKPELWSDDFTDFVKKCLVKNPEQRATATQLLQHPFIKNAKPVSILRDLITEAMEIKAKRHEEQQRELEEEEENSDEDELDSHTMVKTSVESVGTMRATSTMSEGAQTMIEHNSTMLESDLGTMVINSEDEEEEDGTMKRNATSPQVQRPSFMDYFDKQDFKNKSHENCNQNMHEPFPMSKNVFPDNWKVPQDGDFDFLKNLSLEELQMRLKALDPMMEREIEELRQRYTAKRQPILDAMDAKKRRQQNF
T10 sequence (O00418 whole entry): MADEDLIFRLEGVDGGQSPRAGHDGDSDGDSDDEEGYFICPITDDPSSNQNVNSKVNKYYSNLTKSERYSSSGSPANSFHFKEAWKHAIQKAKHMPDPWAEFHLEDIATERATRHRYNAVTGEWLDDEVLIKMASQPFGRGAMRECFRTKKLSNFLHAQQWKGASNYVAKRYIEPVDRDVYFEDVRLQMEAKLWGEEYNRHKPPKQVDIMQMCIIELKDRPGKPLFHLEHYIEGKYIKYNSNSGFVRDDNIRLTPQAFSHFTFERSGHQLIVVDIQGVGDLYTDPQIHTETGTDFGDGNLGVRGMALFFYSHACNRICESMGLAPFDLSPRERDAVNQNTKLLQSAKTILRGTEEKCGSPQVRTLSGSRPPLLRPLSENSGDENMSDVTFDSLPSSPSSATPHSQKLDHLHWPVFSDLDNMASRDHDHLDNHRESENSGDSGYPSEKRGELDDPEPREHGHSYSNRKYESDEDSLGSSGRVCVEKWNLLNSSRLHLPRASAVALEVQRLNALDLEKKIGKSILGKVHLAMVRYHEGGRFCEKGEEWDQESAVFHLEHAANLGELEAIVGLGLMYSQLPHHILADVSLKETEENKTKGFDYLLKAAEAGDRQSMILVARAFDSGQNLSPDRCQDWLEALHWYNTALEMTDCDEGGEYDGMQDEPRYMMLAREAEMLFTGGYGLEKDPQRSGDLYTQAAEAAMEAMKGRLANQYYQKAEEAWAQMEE
T3 sequence (Q15303 whole entry): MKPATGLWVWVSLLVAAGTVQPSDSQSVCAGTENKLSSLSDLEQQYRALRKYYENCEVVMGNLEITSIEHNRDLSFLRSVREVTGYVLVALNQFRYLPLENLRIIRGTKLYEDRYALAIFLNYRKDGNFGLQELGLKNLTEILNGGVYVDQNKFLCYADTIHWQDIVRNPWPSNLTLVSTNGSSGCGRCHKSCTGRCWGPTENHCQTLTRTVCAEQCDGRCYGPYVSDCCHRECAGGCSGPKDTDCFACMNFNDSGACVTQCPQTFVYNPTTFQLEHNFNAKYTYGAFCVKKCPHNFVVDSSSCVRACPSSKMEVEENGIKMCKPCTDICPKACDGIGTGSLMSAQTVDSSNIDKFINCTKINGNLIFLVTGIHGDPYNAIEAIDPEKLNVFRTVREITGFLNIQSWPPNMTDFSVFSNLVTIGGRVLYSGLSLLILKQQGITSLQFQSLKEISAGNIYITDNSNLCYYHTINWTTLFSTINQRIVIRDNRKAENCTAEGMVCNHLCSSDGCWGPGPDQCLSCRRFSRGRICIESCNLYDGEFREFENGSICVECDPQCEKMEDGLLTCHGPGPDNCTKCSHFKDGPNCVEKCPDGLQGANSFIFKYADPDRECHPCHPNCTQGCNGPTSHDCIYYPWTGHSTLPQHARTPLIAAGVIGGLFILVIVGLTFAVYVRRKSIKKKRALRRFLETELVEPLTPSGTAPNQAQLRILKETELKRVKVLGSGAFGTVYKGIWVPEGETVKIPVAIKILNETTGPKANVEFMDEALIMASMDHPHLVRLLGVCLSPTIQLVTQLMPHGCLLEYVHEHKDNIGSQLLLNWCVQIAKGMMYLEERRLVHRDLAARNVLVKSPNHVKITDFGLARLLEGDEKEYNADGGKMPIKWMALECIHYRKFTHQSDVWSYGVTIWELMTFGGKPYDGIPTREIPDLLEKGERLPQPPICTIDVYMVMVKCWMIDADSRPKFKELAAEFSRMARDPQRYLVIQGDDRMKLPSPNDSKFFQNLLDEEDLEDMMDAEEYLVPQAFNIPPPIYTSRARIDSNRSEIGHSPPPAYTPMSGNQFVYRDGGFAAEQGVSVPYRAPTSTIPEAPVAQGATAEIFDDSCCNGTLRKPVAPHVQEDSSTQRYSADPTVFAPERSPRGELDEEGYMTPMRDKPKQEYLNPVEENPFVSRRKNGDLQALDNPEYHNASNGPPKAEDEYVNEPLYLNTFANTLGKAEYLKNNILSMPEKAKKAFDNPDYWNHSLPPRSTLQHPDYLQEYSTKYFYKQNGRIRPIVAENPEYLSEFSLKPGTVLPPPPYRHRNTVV
Sequence of GSK3b (P49841 whole entry): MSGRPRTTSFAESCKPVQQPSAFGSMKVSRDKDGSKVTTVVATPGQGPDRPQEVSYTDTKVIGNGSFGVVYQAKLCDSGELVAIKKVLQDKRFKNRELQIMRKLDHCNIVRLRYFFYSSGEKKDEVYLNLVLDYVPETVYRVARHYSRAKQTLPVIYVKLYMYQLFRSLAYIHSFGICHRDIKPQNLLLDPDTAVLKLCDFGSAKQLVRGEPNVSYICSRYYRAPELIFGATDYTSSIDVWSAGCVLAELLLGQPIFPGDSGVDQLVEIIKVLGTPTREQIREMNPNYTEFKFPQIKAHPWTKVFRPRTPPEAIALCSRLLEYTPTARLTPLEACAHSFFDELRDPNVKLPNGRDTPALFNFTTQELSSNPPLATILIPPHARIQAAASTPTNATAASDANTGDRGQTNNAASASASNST
Sequence of Lck (P06239 whole entry): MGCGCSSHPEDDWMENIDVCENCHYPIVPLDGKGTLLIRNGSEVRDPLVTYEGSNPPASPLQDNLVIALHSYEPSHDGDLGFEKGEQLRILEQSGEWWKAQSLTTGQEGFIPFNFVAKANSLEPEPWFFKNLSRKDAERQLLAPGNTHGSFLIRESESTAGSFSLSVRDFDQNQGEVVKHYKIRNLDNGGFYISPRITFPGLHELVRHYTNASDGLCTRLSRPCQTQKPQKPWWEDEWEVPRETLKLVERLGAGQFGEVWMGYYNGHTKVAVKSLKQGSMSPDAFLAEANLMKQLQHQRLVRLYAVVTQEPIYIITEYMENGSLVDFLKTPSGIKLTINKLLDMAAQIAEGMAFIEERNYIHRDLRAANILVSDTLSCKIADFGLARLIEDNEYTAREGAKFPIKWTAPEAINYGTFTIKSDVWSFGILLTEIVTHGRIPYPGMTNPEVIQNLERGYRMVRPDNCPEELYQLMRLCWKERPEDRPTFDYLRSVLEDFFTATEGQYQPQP
Sequence of RIPK2 (O43353 whole entry): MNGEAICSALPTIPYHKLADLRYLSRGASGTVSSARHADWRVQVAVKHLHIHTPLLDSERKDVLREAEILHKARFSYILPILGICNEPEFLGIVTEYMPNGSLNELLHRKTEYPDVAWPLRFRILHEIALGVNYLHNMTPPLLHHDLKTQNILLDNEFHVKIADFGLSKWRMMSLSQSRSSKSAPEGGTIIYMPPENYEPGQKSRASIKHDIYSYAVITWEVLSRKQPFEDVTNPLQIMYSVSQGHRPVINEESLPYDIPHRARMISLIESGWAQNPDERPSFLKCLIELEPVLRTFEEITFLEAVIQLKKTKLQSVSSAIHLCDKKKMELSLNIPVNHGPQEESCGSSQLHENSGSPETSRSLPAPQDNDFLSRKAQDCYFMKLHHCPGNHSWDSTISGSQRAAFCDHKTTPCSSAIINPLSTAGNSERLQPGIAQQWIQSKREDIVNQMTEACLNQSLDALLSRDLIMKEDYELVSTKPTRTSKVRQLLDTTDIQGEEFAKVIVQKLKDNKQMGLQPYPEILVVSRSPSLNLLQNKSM
T7 sequence (Q16513 whole entry): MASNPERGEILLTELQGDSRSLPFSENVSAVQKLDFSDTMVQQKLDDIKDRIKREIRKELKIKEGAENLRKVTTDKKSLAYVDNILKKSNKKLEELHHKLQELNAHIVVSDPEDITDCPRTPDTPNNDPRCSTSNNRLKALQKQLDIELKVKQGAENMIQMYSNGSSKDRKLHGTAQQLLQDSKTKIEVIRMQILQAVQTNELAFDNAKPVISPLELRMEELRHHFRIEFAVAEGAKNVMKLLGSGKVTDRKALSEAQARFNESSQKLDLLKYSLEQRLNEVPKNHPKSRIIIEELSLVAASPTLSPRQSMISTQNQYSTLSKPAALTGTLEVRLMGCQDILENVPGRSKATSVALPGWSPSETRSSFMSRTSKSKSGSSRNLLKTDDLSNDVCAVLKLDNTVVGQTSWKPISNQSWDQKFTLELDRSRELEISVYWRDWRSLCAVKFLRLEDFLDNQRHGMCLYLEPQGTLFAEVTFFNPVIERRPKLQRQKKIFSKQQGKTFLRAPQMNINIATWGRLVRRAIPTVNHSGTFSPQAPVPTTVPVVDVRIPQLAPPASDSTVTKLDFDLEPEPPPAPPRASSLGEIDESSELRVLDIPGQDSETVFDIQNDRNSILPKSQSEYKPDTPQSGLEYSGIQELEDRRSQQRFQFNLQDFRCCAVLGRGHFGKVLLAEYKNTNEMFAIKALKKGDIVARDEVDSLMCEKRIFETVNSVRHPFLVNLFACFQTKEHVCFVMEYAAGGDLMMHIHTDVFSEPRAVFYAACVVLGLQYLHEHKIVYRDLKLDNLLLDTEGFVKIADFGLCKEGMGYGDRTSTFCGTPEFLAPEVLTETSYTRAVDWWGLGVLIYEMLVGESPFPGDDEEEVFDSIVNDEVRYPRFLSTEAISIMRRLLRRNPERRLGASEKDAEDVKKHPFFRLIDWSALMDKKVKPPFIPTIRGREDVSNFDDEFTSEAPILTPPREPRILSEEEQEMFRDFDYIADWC

One may read the remaining activity as the signal under treatment as a percentage of the control signal. Regarding `Cc1ncsc1-c1ccc(CNC(=O)[C@@H]2C[C@@H](O)CN2C(=O)[C@@H](NC(=O)C2(C#N)CC2)C(C)(C)C)cc1` [VH298], the remaining activity at 50 µM in assay [1] was determined as 87%; in [2] it was 98%; in [3], 103%; in [4], 112%; in assay [5], 96%; in assay [6] it was 119%. The remaining activity at 50 µM in assay [7] came out at 54%; in [8] it was 104%; in assay [9], 100%; in assay [10] it was 107%; in assay [11] it was 110%; in assay [12], 110%. The remaining activity at 50 µM in assay [13] stood at 111%; in assay [14], 99%; in [15] it was 116%.
